Paper PMC4024065, “Optimization of an Imidazopyridazine Series of Inhibitors of Plasmodium falciparum Calcium-Dependent Protein Kinase 1 (PfCDPK1)” (Journal of Medicinal Chemistry, 2014)
Where two headings read alike, the source gives them in different places.

How the values were obtained:
[1] = Figure 1 summary data; cited from earlier work
[2] = Figure 1 summary data; cited from earlier work; remark: listed apart in the source
[3] = Pharmacokinetics in rats; assay type: in vivo; conditions: rat, hydrochloride salt

SMILES: CC(C)CCNc1ccc(-c2cnc3ccc(NC4CCN(C)CC4)nn23)cn1 [Compound 1]
- MLM % rem at 30 min [1]: 63%
- HLM % rem at 40 min [2]: 85%

SMILES: CN1CCC(Nc2ccc3ncc(-c4ccc(Nc5ncccc5F)cc4)n3n2)CC1 [Compound 35, 3-{4-[(3-Fluoropyridin-2-yl)amino]phenyl}-N-(1-methylpiperidin-4-yl)imidazo[1,2-b]pyridazin-6-amine]
- Vd ([3]; in vivo, iv 4.5 mg/kg): 8 L/kg
- half-life ([3]; in vivo, iv 4.5 mg/kg, read-out: iv t1/2 (converted)): 4 h
- clearance ([3]; plasma, iv 4.5 mg/kg, read-out: plasma Cl): 28 mL/min/kg
- oral BA ([3]; po 21 mg/kg, iv […]): 70%
- clearance ([3]; whole blood, iv 4.5 mg/kg, read-out: blood Cl): 14 mL/min/kg
